Measured values published in US12378219B2, “Crystalline forms of a MAGL inhibitor” (H. LUNDBECK A/S, priority 2022, dated 2025).

Columns and labels:
[1] = Dynamic vapor sorption (DVS); format: physicochemical; details: up to 90% RH
Protocol: Example 6: Procedures Used for Dynamic Vapor Sorption (DVS) Measurements
DVS was measured using SMS DVS advantage 01 changing the relative humidity from 0% RH to 95% RH in steps of 10% RH (5% between 90 and 95% RH). 2 cycles were performed using 1-10 mg, starting at 30% RH.

[2] = Relative thermodynamic stability of crystalline forms (DSC, XRPD after heating, slurry); format: physicochemical; details: form 1 converts to form 3 on heating to 150° C. and upon slurry
Protocol: In a vial Compound (I) form 1 (500 mg) were slurried in a 1:1 mixture of MeCN/water at room temperature for 24 hours. A small sample of wet precipitate was analyzed by XRPD showing the diffractogram of FIG. 3.
DSC was measured using a TA-Instruments Discovery-DSC calibrated at 5°/min to give the melting point as onset value. About 2 mg of sample is heated 5°/min under nitrogen flow in a closed pan with a pinhole in the lid.
Thus, Compound (I) Form 3 was formed upon heating of Compound (I) Form 1.

MAGL [3] = target: T1, MAGL (Homo sapiens, UniProt Q99685); experiment: In vitro competitive activity-based protein profiling (ABPP) in PC3 human cell membrane proteomes; format: biochemical; details: 30 min preincubation at 37° C., read-out: MAGL % inh. 1 μM (human PC3)
T1 construct: measuring fluorescent intensity of gel bands corresponding to MAGL; endogenous in cells; host or cells: PC3 human cells (membrane proteome)
T1 sequence (Q99685 1-303): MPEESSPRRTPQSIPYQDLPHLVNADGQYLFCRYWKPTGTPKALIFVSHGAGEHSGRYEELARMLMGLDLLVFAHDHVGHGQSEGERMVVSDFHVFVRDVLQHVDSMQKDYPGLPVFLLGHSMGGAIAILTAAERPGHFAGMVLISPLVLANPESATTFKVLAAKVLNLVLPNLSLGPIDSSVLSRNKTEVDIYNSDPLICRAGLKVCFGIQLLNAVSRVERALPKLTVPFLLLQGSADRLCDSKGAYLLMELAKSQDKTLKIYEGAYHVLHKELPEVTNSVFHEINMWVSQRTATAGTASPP
Protocol: In Vitro Competitive Activity-Based Protein Profiling
PC3 human cell membrane proteomes (50 μL, 2.0 mg/mL total protein concentration) were preincubated with varying concentrations of Compound (I) at 37° C. After 30 min, the ABPP probe JW912-Bodipy (1.0 μL, 50 μM in DMSO) was added and the mixture was incubated for 30 min at room temperature. Reactions were quenched with SDS loading buffer (15 μL—4×) and run on SDS-PAGE. Following gel imaging, serine hydrolase activity was determined by measuring fluorescent intensity of gel bands corresponding to MAGL using ImageJ 1.43u software. Intensities were converted to percent enzyme activity by normalizing to DMSO controls. IC50 values were determined by fitting percent enzyme activities to a non-linear regression, 4-parameter, sigmoidal dose response function in Prism GraphPad.

MAGL [4] = target: T2, MAGL (Mus musculus, UniProt O35678); experiment: In vivo MAGL inhibition, brain proteomes after oral gavage; details: 5 mg/kg oral gavage; C57Bl/6J; brain proteomes 4 h after administration
T2 construct: brain proteomes were prepared and analyzed according to previously established methods; from tissue; host or cells: brain of wild-type C57Bl/6J animals
T2 sequence (O35678 1-303): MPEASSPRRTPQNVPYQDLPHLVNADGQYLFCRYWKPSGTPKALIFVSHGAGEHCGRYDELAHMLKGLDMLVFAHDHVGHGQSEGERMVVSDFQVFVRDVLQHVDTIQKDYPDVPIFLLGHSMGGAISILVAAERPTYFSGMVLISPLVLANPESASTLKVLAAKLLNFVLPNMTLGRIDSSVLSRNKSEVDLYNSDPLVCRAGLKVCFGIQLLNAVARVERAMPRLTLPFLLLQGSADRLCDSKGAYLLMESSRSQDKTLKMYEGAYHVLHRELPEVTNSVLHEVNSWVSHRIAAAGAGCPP
Protocol: Compound (I) were administered to wild-type C57Bl/6J by oral gavage in a vehicle of polyethylene glycol. Each animal was sacrificed 4 h following administration and brain proteomes were prepared and analyzed according to previously established methods (See Niphakis, M. J., et al. (2011) ACS Chem. Neurosci. and Long, J. Z., et al. Nat. Chem. Biol. 5:37-44).

## O=C(Nc1cccnn1)[C@H]1CC12CCN(C(=O)OC(C(F)(F)F)C(F)(F)F)CC2 [Compound (I) form 3, 1,1,1,3,3,3-Hexafluoropropan-2-yl (S)-1-(pyridazin-3-ylcarbamoyl)-6-azaspiro[2.5]octane-6-carboxylate form 3]
[1]
  water uptake (DVS): around 0.1 wt %
[2]
  thermodynamic stability relative to the other crystalline form: thermodynamically more stable than Compound (I) Form 1

## O=C(Nc1cccnn1)[C@H]1CC12CCN(C(=O)OC(C(F)(F)F)C(F)(F)F)CC2 [Compound (I), 1,1,1,3,3,3-Hexafluoropropan-2-yl (S)-1-(pyridazin-3-ylcarbamoyl)-6-azaspiro[2.5]octane-6-carboxylate]
MAGL [3]
  inhibition at 1 µM: 100%
MAGL [4]
  MAGL % inh. 5 mg/kg (mouse): 100%

## O=C(Nc1cccnn1)[C@H]1CC12CCN(C(=O)OC(C(F)(F)F)C(F)(F)F)CC2 [Compound (I) form 1, 1,1,1,3,3,3-Hexafluoropropan-2-yl (S)-1-(pyridazin-3-ylcarbamoyl)-6-azaspiro[2.5]octane-6-carboxylate form 1]
[1]
  water uptake (DVS): 1.4 wt %
